Results from US20240158446A1, “CYCLIC COMPOUND HAVING SELECTIVE INHIBITORY ACTION ON KRAS OVER HRAS AND NRAS” (CHUGAI SEIYAKU KABUSHIKI KAISHA, priority 2021, published 2024).

What was measured:
[1] = biological target: GDP-bound KRAS wild-type protein (Homo sapiens, UniProt P01116); assay: Binding to KRAS by surface plasmon resonance (SPR), Single Cycle Kinetics; details: SPR, Single Cycle Kinetics, GDP-bound KRAS wild-type protein; read-out: KRAS KD
[2] = biological target: GDP-bound NRAS wild-type protein (Homo sapiens, UniProt P01111); assay: Binding to NRAS by surface plasmon resonance (SPR), Single Cycle Kinetics; details: ratio of KD for GDP-bound NRAS wild-type protein to KD for KRAS, SPR
[3] = biological target: GDP-bound HRAS wild-type protein (Homo sapiens, UniProt P01112); assay: Binding to HRAS by surface plasmon resonance (SPR), Single Cycle Kinetics; details: ratio of KD for GDP-bound HRAS wild-type protein to KD for KRAS, SPR
[4] = tested on: human lung cancer strain NCI-H441; assay: cells; details: NCI-H441, 96 h, read-out: NCI-H441 IC50 (nM), NCI-H441 cell proliferation, 4 days, CellTiter-Glo;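 note: cell proliferation inhibition after four days measured by CellTiter-Glo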

Chain of GDP-bound KRAS wild-type protein (P01116 whole entry): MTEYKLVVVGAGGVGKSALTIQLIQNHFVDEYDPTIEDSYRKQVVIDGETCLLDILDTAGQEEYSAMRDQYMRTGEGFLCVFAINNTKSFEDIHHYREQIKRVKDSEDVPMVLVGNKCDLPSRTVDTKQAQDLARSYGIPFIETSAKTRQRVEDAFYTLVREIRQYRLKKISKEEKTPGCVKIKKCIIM
Chain of GDP-bound HRAS wild-type protein (P01112 whole entry): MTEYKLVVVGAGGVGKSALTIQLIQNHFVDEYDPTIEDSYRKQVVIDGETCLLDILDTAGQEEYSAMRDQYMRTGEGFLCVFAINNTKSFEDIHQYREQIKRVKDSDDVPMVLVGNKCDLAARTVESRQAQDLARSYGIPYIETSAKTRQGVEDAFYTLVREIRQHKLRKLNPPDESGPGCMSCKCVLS
Chain of GDP-bound NRAS wild-type protein (P01111 whole entry): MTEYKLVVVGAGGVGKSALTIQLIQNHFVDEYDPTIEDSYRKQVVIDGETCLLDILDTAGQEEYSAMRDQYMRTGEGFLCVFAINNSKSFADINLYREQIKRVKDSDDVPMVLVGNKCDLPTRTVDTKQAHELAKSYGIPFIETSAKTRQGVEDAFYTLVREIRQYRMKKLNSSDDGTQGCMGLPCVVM

Structure (SMILES) | Kd [1] | NRAS/KRAS (KD ratio) [2] | HRAS/KRAS (KD ratio) [3] | IC50 [4]
CCO[C@@H]1C[C@H]2C(=O)NC3(CC(F)(F)C3)C(=O)N(C)[C@@H](C3CCCC3)C(=O)N(C)[C@H](C(=O)N(C)C)CC(=O)N(C)[C@@H](CC(C)C)C(=O)N[C@@H]([C@@H](C)CC)C(=O)N(C)CC(=O)N(C)[C@H]3C/C=C\CCN(C3=O)[C@@H](Cc3ccc(C(F)(F)F)cc3)C(=O)N(C)CC(=O)N[C@@H](CCc3cc(F)c(C(F)(F)F)c(F)c3)C(=O)N2C1 [PP1741] | 0.039 nM | A (a compound having 10 or more and less than 20 is denoted as A) | B (a compound having 3 or more and less than 10 is denoted as B) | 2.3 nM
CCO[C@@H]1C[C@H]2C(=O)NC3(CC(F)(F)C3)C(=O)N(C)[C@@H](C3CCCC3)C(=O)N(C)[C@H](C(=O)N(C)C)CC(=O)N(C)[C@@H](CC3CCC3)C(=O)N[C@@H]([C@@H](C)CC)C(=O)N(C)CC(=O)N(C)[C@H]3C/C=C\CCN(C3=O)[C@@H](Cc3ccc(C(F)(F)F)cc3)C(=O)N(C)CC(=O)N[C@@H](CCc3cc(F)c(C(F)(F)F)c(F)c3)C(=O)N2C1 [PP1742] | 0.051 nM | A (a compound having 10 or more and less than 20 is denoted as A) | A (a compound having 10 or more and less than 20 is denoted as A) | 1.6 nM
CCCN(C)C(=O)[C@@H]1CC(=O)N(C)[C@@H](COC)C(=O)N[C@@H]([C@@H](C)CC)C(=O)N(C)CC(=O)N(C)[C@H]2C/C=C\CCN(C2=O)[C@@H](Cc2ccc(C(F)(F)F)cc2)C(=O)N(C)CC(=O)N[C@@H](CCc2cc(F)c(C(F)(F)F)c(F)c2)C(=O)N2C[C@H](OCC)C[C@H]2C(=O)NC2(CC(F)(F)C2)C(=O)N(C)[C@@H](C2CCCC2)C(=O)N1C [PP1743] | 0.076 nM | AA (a compound having 20 or more is denoted as AA) | A (a compound having 10 or more and less than 20 is denoted as A) | 5.1 nM
CCCOC[C@H]1C(=O)N[C@@H]([C@@H](C)CC)C(=O)N(C)CC(=O)N(C)[C@H]2C/C=C\CCN(C2=O)[C@@H](Cc2ccc(C(F)(F)F)cc2)C(=O)N(C)CC(=O)N[C@@H](CCc2cc(F)c(C(F)(F)F)c(F)c2)C(=O)N2C[C@H](OCC)C[C@H]2C(=O)NC2(CC(F)(F)C2)C(=O)N(C)[C@@H](C2CCCC2)C(=O)N(C)[C@H](C(=O)N(C)CCC)CC(=O)N1C [PP1744] | 0.13 nM | A (a compound having 10 or more and less than 20 is denoted as A) | A (a compound having 10 or more and less than 20 is denoted as A) | 5.3 nM
CCO[C@@H]1C[C@H]2C(=O)NC3(CC(C)(C)C3)C(=O)N(C)[C@@H](C3CCCC3)C(=O)N(C)[C@H](C(=O)N(C)C)CC(=O)N(C)[C@@H](CC)C(=O)N[C@@H]([C@@H](C)CC)C(=O)N(C)CC(=O)N(C)[C@H]3C/C=C\CCN(C3=O)[C@@H](Cc3ccc(C(F)(F)F)cc3)C(=O)N(C)CC(=O)N[C@@H](CCc3ccc(C(F)(F)F)c(Cl)c3)C(=O)N2C1 [PP1746] | 0.054 nM | A (a compound having 10 or more and less than 20 is denoted as A) | A (a compound having 10 or more and less than 20 is denoted as A) | 1.9 nM
CCO[C@@H]1C[C@H]2C(=O)NC3(CC(C)(C)C3)C(=O)N(C)[C@@H](C3CCCC3)C(=O)N(C)[C@H](C(=O)N(C)C)CC(=O)N(C)[C@@H](CC(F)F)C(=O)N[C@@H]([C@@H](C)CC)C(=O)N(C)CC(=O)N(C)[C@H]3C/C=C\CCN(C3=O)[C@@H](Cc3ccc(C(F)(F)F)cc3)C(=O)N(C)CC(=O)N[C@@H](CCc3ccc(C(F)(F)F)c(Cl)c3)C(=O)N2C1 [PP1747] | 0.058 nM | A (a compound having 10 or more and less than 20 is denoted as A) | A (a compound having 10 or more and less than 20 is denoted as A) | 2.3 nM
CCC[C@H]1C(=O)N[C@@H]([C@@H](C)CC)C(=O)N(C)CC(=O)N(C)[C@H]2C/C=C\CCN(C2=O)[C@@H](Cc2ccc(C(F)(F)F)cc2)C(=O)N(C)CC(=O)N[C@@H](CCc2ccc(C(F)(F)F)c(Cl)c2)C(=O)N2C[C@H](OCC)C[C@H]2C(=O)NC2(CC(C)(C)C2)C(=O)N(C)[C@@H](C2CCCC2)C(=O)N(C)[C@H](C(=O)N(C)C)CC(=O)N1C [PP1748] | 0.062 nM | A (a compound having 10 or more and less than 20 is denoted as A) | B (a compound having 3 or more and less than 10 is denoted as B) | 3.1 nM
CCO[C@@H]1C[C@H]2C(=O)NC3(CC(C)(C)C3)C(=O)N(C)[C@@H](C3CCCC3)C(=O)N(C)[C@H](C(=O)N(C)C)CC(=O)N(C)[C@@H](CC3CC3)C(=O)N[C@@H]([C@@H](C)CC)C(=O)N(C)CC(=O)N(C)[C@H]3C/C=C\CCN(C3=O)[C@@H](Cc3ccc(C(F)(F)F)cc3)C(=O)N(C)CC(=O)N[C@@H](CCc3ccc(C(F)(F)F)c(Cl)c3)C(=O)N2C1 [PP1749] | 0.039 nM | A (a compound having 10 or more and less than 20 is denoted as A) | A (a compound having 10 or more and less than 20 is denoted as A) | 3.3 nM
CCCC[C@H]1C(=O)N[C@@H]([C@@H](C)CC)C(=O)N(C)CC(=O)N(C)[C@H]2C/C=C\CCN(C2=O)[C@@H](Cc2ccc(C(F)(F)F)cc2)C(=O)N(C)CC(=O)N[C@@H](CCc2ccc(C(F)(F)F)c(Cl)c2)C(=O)N2C[C@H](OCC)C[C@H]2C(=O)NC2(CC(C)(C)C2)C(=O)N(C)[C@@H](C2CCCC2)C(=O)N(C)[C@H](C(=O)N(C)C)CC(=O)N1C [PP1750] | 0.069 nM | A (a compound having 10 or more and less than 20 is denoted as A) | B (a compound having 3 or more and less than 10 is denoted as B) | 3.4 nM
CCO[C@@H]1C[C@H]2C(=O)NC3(CC(C)(C)C3)C(=O)N(C)[C@@H](C3CCCC3)C(=O)N(C)[C@H](C(=O)N(C)C)CC(=O)N(C)[C@@H](CC(C)C)C(=O)N[C@@H]([C@@H](C)CC)C(=O)N(C)CC(=O)N(C)[C@H]3C/C=C\CCN(C3=O)[C@@H](Cc3ccc(C(F)(F)F)cc3)C(=O)N(C)CC(=O)N[C@@H](CCc3ccc(C(F)(F)F)c(Cl)c3)C(=O)N2C1 [PP1751] | 0.047 nM | A (a compound having 10 or more and less than 20 is denoted as A) | A (a compound having 10 or more and less than 20 is denoted as A) | 2.2 nM
CCO[C@@H]1C[C@H]2C(=O)NC3(CC(C)(C)C3)C(=O)N(C)[C@@H](C3CCCC3)C(=O)N(C)[C@H](C(=O)N(C)C)CC(=O)N(C)[C@@H](CC3CCC3)C(=O)N[C@@H]([C@@H](C)CC)C(=O)N(C)CC(=O)N(C)[C@H]3C/C=C\CCN(C3=O)[C@@H](Cc3ccc(C(F)(F)F)cc3)C(=O)N(C)CC(=O)N[C@@H](CCc3ccc(C(F)(F)F)c(Cl)c3)C(=O)N2C1 [PP1752] | 0.085 nM | A (a compound having 10 or more and less than 20 is denoted as A) | A (a compound having 10 or more and less than 20 is denoted as A) | 5.8 nM
CCO[C@@H]1C[C@H]2C(=O)NC3(CC(C)(C)C3)C(=O)N(C)[C@@H](C3CCCC3)C(=O)N(C)[C@H](C(=O)N(C)C)CC(=O)N(C)[C@@H](COC)C(=O)N[C@@H]([C@@H](C)CC)C(=O)N(C)CC(=O)N(C)[C@H]3C/C=C\CCN(C3=O)[C@@H](Cc3ccc(C(F)(F)F)cc3)C(=O)N(C)CC(=O)N[C@@H](CCc3ccc(C(F)(F)F)c(Cl)c3)C(=O)N2C1 [PP1753] | 0.038 nM | A (a compound having 10 or more and less than 20 is denoted as A) | A (a compound having 10 or more and less than 20 is denoted as A) | 5.9 nM
CCCOC[C@H]1C(=O)N[C@@H]([C@@H](C)CC)C(=O)N(C)CC(=O)N(C)[C@H]2C/C=C\CCN(C2=O)[C@@H](Cc2ccc(C(F)(F)F)cc2)C(=O)N(C)CC(=O)N[C@@H](CCc2ccc(C(F)(F)F)c(Cl)c2)C(=O)N2C[C@H](OCC)C[C@H]2C(=O)NC2(CC(C)(C)C2)C(=O)N(C)[C@@H](C2CCCC2)C(=O)N(C)[C@H](C(=O)N(C)C)CC(=O)N1C [PP1754] | 0.064 nM | A (a compound having 10 or more and less than 20 is denoted as A) | A (a compound having 10 or more and less than 20 is denoted as A) | 3 nM
CCCN(C)C(=O)[C@@H]1CC(=O)N(C)[C@@H](CC(F)F)C(=O)N[C@@H]([C@@H](C)CC)C(=O)N(C)CC(=O)N(C)[C@H]2C/C=C\CCN(C2=O)[C@@H](Cc2ccc(C(F)(F)F)cc2)C(=O)N(C)CC(=O)N[C@@H](CCc2cc(F)c(Cl)c(F)c2)C(=O)N2C[C@H](OCC)C[C@H]2C(=O)NC2(CC(C)(C)C2)C(=O)N(C)[C@@H](C2CCCC2)C(=O)N1C [PP1757] | 0.31 nM | AA (a compound having 20 or more is denoted as AA) | A (a compound having 10 or more and less than 20 is denoted as A) | 7.1 nM
